ChEMBL document CHEMBL1125120, “Synthesis and anticonvulsant and sedative-hypnotic activity of 4-(alkylimino)-2,3-dihydro-4H-1-benzopyrans and -benzothiopyrans” (J Med Chem, 1990)
Calls of active or inactive are those of the source. The rule behind the calls is not given here.

Experiments:
Mus musculus [1] = test: Ability to inhibit seizures induced by electroshock in mice administered per orally; i = inactive; format: functional, organism-based
Mus musculus [2] = test: Ability to inhibit seizures induced by mercaptopropionic acid in mice administered per orally; i = inactive; format: functional, organism-based
Mus musculus [3] = test: Ability to inhibit seizures induced by pentylenetetrazole in mice administered per orally; format: functional; details: po
[4] = (§1) Acute toxicity administered per orally; format: organism-based; details: mouse, in vivo, po
Rattus norvegicus [5] = test: Ability to potentiate pentobarbital-induced sleep administered per orally; i = inactive; format: functional, organism-based
Mus musculus [6] = test: Ability to inhibit seizures induced by electroshock in mice administered per orally; format: functional; details: po
Mus musculus [7] = test: Ability to inhibit seizures induced by mercaptopropionic acid in mice administered per orally; format: functional; details: po
Rattus norvegicus [8] = test: Ability to potentiate pentobarbital-induced sleep administered per orally; format: functional; details: po
Mus musculus [9] = test: as §1; format: functional; details: po

Structure (SMILES)	ED50 (Mus musculus [1])	ED50 (Mus musculus [2])	ED50 (Mus musculus [3]) [mg/kg]	LD50 [4] [mg/kg]	ED50 (Rattus norvegicus [5])	ED50 (Mus musculus [6]) [mg/kg]	ED50 (Mus musculus [7]) [mg/kg]	ED50 (Rattus norvegicus [8]) [mg/kg]	LD50 (Mus musculus [9]) [mg/kg]
CCCCCc1cc(O)c2c(c1)OC(C)(C)C/C2=N\CC(C)O (stereo not given)	inactive	inactive	24.3	800	inactive	–	–	–	–
CCCCCc1cc(O)c2c(c1)OC(C)(C)C/C2=N\C[C@@H](C)O	–	–	14	800	inactive	13.8	9.4	–	–
CCCC(CCC)C(=O)[O-].[Na+] [VALPROATE SODIUM]	–	–	200	–	–	206	200	–	–
CCCCc1cc(O)c2c(c1)OC(C)(C)C[C@H]2NCC(C)O (stereo not given in full)	inactive	inactive	15.5	800	–	–	–	14.2	–
CN1C(=O)CN=C(c2ccccc2)c2cc(Cl)ccc21 [DIAZEPAM]	–	–	0.5	–	–	1.2	0.7	–	–
CCCCCc1cc(O)c2c(c1)SC(C)(C)C[C@H]2NCC(C)O (stereo not given in full)	–	–	4.8	> 1600	–	20.6	8.8	9.7	–
CCCCCc1cc(O)c2c(c1)OC(C)(C)C/C2=N\CCO	inactive	inactive	19	> 800	inactive	–	–	–	–
CCCCCc1cc(O)c2c(c1)SC(C)(C)C/C2=N\CC(C)O (stereo not given)	inactive	–	14.3	> 800	–	–	–	10	–
CCCCCc1cc(O)c2c(c1)SC(C)(C)C/C2=N\CCO	inactive	inactive	24	–	inactive	–	–	–	> 800
